According to US9957252B2, “Metalloenzyme inhibitor compounds as fungicides” (Dow AgroSciences LLC, priority 2014, dated 2018):
Like-named read-outs stand apart in the source and are kept apart here.

How the values were obtained:
Format in all cases: in vivo, Mycosphaerella graminicola on wheat plants (variety Yuma)
[1] = system: standard laboratory SEPTTR isolate (SI SEPTTR); Mycosphaerella graminicola; Anamorph: Septoria tritici; assay: Leaf blotch of wheat fungicidal activity, Type B assay (10% EC formulation in 0.1% Trycol 5941, track sprayer 200 L/ha), standard laboratory isolate; details: Zymoseptoria tritici, 72 h, wheat seedlings (Yuma)
Method: (§1) Evaluation of Fungicidal Activity: Leaf Blotch of Wheat (Mycosphaerella graminicola; Anamorph: Septoria tritici; Bayer code SEPTTR):
(§2) For Type A assays, technical grades of the experimental fungicides in Table 4 below were dissolved in acetone, and then mixed with nine volumes of water containing 110 ppm Triton X-100. The fungicide solutions were applied onto wheat seedlings using an automated booth sprayer. For Type B assays, emulsifiable concentrate (EC) formulations of technical grades of experimental fungicides in Table 4 below were prepared at 10% (w/v), and then mixed with 150 volumes of 0.1% Trycol 5941. The fungicide solutions were applied onto wheat seedlings using an automated track sprayer at 200 L/ha. All sprayed plants were allowed to air dry prior to further handling.
(§3) Wheat plants (variety Yuma) were grown from seed in a greenhouse in 50% mineral soil/50% soil-less Metro mix until the first leaf was fully emerged, with 7-10 seedlings per pot. Prior to or after application of experimental fungicides, plants were inoculated either with spores of a standard laboratory SEPTTR isolate (SI SEPTTR) or with spores from a SEPTTR field isolate collected from Wellsbourne, England in 2012 (FI SEPTTR). After inoculation, the plants were kept for 3 days at 20° C. in 100% relative humidity (one day in a dark dew chamber followed by two days in a lighted dew chamber). Plants were then transferred to a 20° C. greenhouse for disease development. When disease symptoms were fully expressed on untreated plants, infection levels on treated plants were assessed on a scale of 0 to 100 percent disease severity. Percent disease control was calculated using the ratio of disease severity on treated plants relative to untreated plants.

[2] = Leaf blotch of wheat fungicidal activity, Type B assay (10% EC formulation in 0.1% Trycol 5941, track sprayer 200 L/ha), field isolate; details: Zymoseptoria tritici, 72 h, field isolate (Wellsbourne, England 2012), wheat seedlings (Yuma)
Method: as §1, §2, §3

[3] = system: standard laboratory SEPTTR isolate (SI SEPTTR); Mycosphaerella graminicola; Anamorph: Septoria tritici; assay: Leaf blotch of wheat fungicidal activity, Type A assay (technical grade in acetone/water with Triton X-100, booth sprayer), standard laboratory isolate; details: Zymoseptoria tritici, 24 h, 1 Day Protectant, wheat seedlings (Yuma), read-out: Disease control, SI SEPTTR Type A Assay (50 ppm) 1DP
Method: as §1, §2, §3

[4] = 3 Day Curative, read-out: Disease control, SI SEPTTR Type B Assay (100 g/ha) 3DC
[5] = 3 Day Protectant, read-out: Disease control, SI SEPTTR Type B Assay (100 g/ha) 3DP
[6] = 3 Day Curative, read-out: Disease control, FI SEPTTR Type B Assay (100 g/ha) 3DC
[7] = 3 Day Protectant, read-out: Disease control, FI SEPTTR Type B Assay (100 g/ha) 3DP

Row | SMILES | pest or weed control at 100 g/ha [1, 4] [%] | pest or weed control at 100 g/ha [1, 5] [%] | pest or weed control at 100 g/ha [2, 6] [%] | pest or weed control at 100 g/ha [2, 7] [%] | pest or weed control at 50 ppm [3] [%]
1 | CC(C)(C)C(O)(c1cncnc1)c1ccc(-c2ccc(C(F)(F)F)nc2)cc1F (stereo not drawn) [Compound 24] | 80 to 100 | 80 to 100 | 80 to 100 | 80 to 100 | –
2 | CC(C)(C)C(O)(c1ccc(-c2ccc(SC(F)(F)F)cc2)cc1)c1cncnc1 (stereo not drawn) [Compound 19] | 80 to 100 | 60 to 79 | 80 to 100 | 80 to 100 | –
3 | CC(C)(C)C(O)(c1cncnc1)c1ccc(-c2ccc(OCC(F)(F)F)cc2)cc1Cl (stereo not drawn) [Compound 25] | 80 to 100 | 60 to 79 | 80 to 100 | 80 to 100 | 80 to 100
4 | Cc1cc(-c2ccc(C#N)cc2)ccc1C(O)(c1cncnc1)C(C)(C)C (stereo not drawn) [Compound 37] | – | – | – | – | 80 to 100
5 | CC(C)(C)C(O)(c1ccc(-c2ccccc2OC(F)(F)F)cc1)c1cncnc1 (stereo not drawn) [Compound 12] | – | – | – | – | 60 to 79
6 | COc1cc(-c2ccc(OC(F)(F)F)cc2F)ccc1C(O)(c1cncnc1)C(C)(C)C (stereo not drawn) [Compound 53] | – | – | – | – | 80 to 100
7 | CC(C)(C)C(O)(c1cncnc1)c1ccc(-c2ccc(C(F)(F)F)nc2)cc1Cl (stereo not drawn) [Compound 23] | 80 to 100 | 80 to 100 | 80 to 100 | 80 to 100 | –
8 | CC(C)(C)C(O)(c1cncnc1)c1ccc(-c2ccc(OC(F)F)cc2)cc1F (stereo not drawn) [Compound 16] | 80 to 100 | 80 to 100 | 80 to 100 | 80 to 100 | –
9 | CC(C)(C)C(O)(c1cncnc1)c1ccc(-c2ccc(C#N)cc2)cc1Cl (stereo not drawn) [Compound 9] | 80 to 100 | 60 to 79 | 80 to 100 | 80 to 100 | 80 to 100
10 | CC(C)(C)C(O)(c1cncnc1)c1ccc(-c2ccc(Cl)cc2)cc1Cl (stereo not drawn) [Compound 22] | 80 to 100 | 80 to 100 | 80 to 100 | 80 to 100 | –
11 | CC(C)(C)C(O)(c1cncnc1)c1ccc(-c2ccc(OC(F)F)cc2)cc1Cl (stereo not drawn) [Compound 10] | 80 to 100 | 80 to 100 | 80 to 100 | 60 to 79 | 80 to 100
12 | Cc1cc(-c2ccc(OC(F)(F)F)cc2)ccc1C(O)(c1cncnc1)C(C)(C)C (stereo not drawn) [Compound 34] | – | – | – | – | 80 to 100
13 | CC(C)(C)C(O)(c1ccc(-c2ccccc2)cc1)c1cncnc1 (stereo not drawn) [Compound 5] | – | – | – | – | 80 to 100
14 | Cc1cc(-c2ccc(CC#N)cc2)ccc1C(O)(c1cncnc1)C(C)(C)C (stereo not drawn) [Compound 43] | – | – | – | – | 40 to 59
15 | Cc1cc(OC(F)(F)F)ccc1-c1ccc(C(O)(c2cccnc2)C(C)(C)C)cc1 (stereo not drawn) [Compound 63] | – | – | – | – | 80 to 100
16 | COc1cc(-c2ccc(CC#N)cc2)ccc1C(O)(c1cncnc1)C(C)(C)C (stereo not drawn) [Compound 48] | – | – | – | – | 80 to 100
17 | CC(C)(C)C(O)(c1ccc(-c2ccc(CC#N)cc2)cc1)c1cccnc1 (stereo not drawn) [Compound 59] | – | – | – | – | 80 to 100
18 | CC(C)(C)c1ccc(-c2ccc(C(O)(c3cccnc3)C(C)(C)C)cc2)cc1 (stereo not drawn) [Compound 62] | – | – | – | – | 80 to 100
19 | CC(C)(C#N)c1ccc(-c2ccc(C(O)(c3cccnc3)C(C)(C)C)cc2)cc1 (stereo not drawn) [Compound 61] | – | – | – | – | 80 to 100
20 | Cc1cc(OC(F)(F)F)ccc1-c1ccc(C(O)(c2cncnc2)C(C)(C)C)c(C)c1 (stereo not drawn) [Compound 40] | – | – | – | – | 80 to 100
21 | CC(C)(C)C(O)(c1ccc(-c2cccc(OC(F)(F)F)c2)cc1)c1cncnc1 (stereo not drawn) [Compound 11] | 60 to 79 | 80 to 100 | 60 to 79 | 60 to 79 | 80 to 100
22 | CC(C)(C)C(O)(c1cncnc1)c1ccc(-c2ccc(OC(F)(F)F)cc2)cc1F (stereo not drawn) [Compound 15] | 80 to 100 | 80 to 100 | 60 to 79 | 80 to 100 | –
23 | CC(C)(C)C(O)(c1ccc(-c2ccc(OC(F)(F)F)cc2)cc1)c1cncnc1 (stereo not drawn) [Compound 1, 2,2-dimethyl-1-(pyrimidin-5-yl)-1-(4′-(trifluoromethoxy)-[1,1′-biphenyl]-4-yl)propan-1-ol] | 80 to 100 | 80 to 100 | 80 to 100 | 80 to 100 | 80 to 100

Row | SMILES | pest or weed control at 100 g/ha [1, 4] [%] | pest or weed control at 100 g/ha [1, 5] [%] | pest or weed control at 100 g/ha [2, 6] [%] | pest or weed control at 100 g/ha [2, 7] [%] | pest or weed control at 50 ppm [3] [%]
24 | COc1cc(-c2ccc(C#N)cc2)ccc1C(O)(c1cncnc1)C(C)(C)C (stereo not drawn) [Compound 47] | – | – | – | – | 80 to 100
25 | Cc1cc(-c2ccc(SC(F)(F)F)cc2)ccc1C(O)(c1cncnc1)C(C)(C)C (stereo not drawn) [Compound 35] | – | – | – | – | 80 to 100
26 | COc1ccc(-c2ccc(C(O)(c3cncnc3)C(C)(C)C)cc2)cc1 (stereo not drawn) [Compound 13] | – | – | – | – | 80 to 100
27 | CC(C)(C)C(O)(c1cncnc1)c1ccc(-c2ccc(C#N)cc2)cc1F (stereo not drawn) [Compound 17] | 80 to 100 | 80 to 100 | 80 to 100 | 80 to 100 | –
28 | CC(C)(C)C(O)(c1ccc(-c2ccc(OC(F)F)cc2)cc1)c1cncnc1 (stereo not drawn) [Compound 2] | 80 to 100 | 80 to 100 | 80 to 100 | 80 to 100 | 80 to 100
29 | COc1cc(-c2ccc(C(C)(C)C)cc2)ccc1C(O)(c1cncnc1)C(C)(C)C (stereo not drawn) [Compound 51] | – | – | – | – | 80 to 100
30 | Cc1cc(-c2ccc(OC(F)F)cc2)ccc1C(O)(c1cncnc1)C(C)(C)C (stereo not drawn) [Compound 36] | – | – | – | – | 80 to 100
31 | CC(C)(C)C(O)(c1cncnc1)c1ccc(-c2ccc(C(F)(F)F)cc2F)cc1Cl (stereo not drawn) [Compound 30] | 80 to 100 | 80 to 100 | 80 to 100 | 80 to 100 | 80 to 100
32 | COc1cc(-c2ccc(OC(F)(F)F)cc2)ccc1C(O)(c1cncnc1)C(C)(C)C (stereo not drawn) [Compound 44] | – | – | – | – | 80 to 100
33 | CC(C)(C)C(O)(c1ccc(-c2ccc(OCC(F)(F)F)cc2)cc1)c1cccnc1 (stereo not drawn) [Compound 57] | – | – | – | – | 80 to 100
34 | CC(C)(C)C(O)(c1ccc(-c2ccc(C#N)cc2)cc1)c1cncnc1 (stereo not drawn) [Compound 3] | 60 to 79 | 60 to 79 | 80 to 100 | 60 to 79 | 80 to 100
35 | CC(C)(C)C(O)(c1cncnc1)c1ccc(-c2ccc(OC(F)(F)F)cc2)cc1Cl (stereo not drawn) [Compound 8] | 80 to 100 | 80 to 100 | 80 to 100 | 80 to 100 | 80 to 100
36 | CC(C)(C)C(O)(c1ccc(-c2ccc(C3(C#N)CC3)cc2)cc1)c1cccnc1 (stereo not drawn) [Compound 60] | – | – | – | – | 80 to 100
37 | CC(C)(C)C(O)(c1ccc(-c2ccc(OC(F)(F)F)cc2)cc1)c1cccnc1 (stereo not drawn) [Compound 54] | – | – | – | – | 80 to 100
38 | CC(C)(C)C(O)(c1ccc(-c2ccc(SC(F)(F)F)cc2)cc1)c1cccnc1 (stereo not drawn) [Compound 55] | – | – | – | – | 80 to 100
39 | CC(C)(C)C(O)(c1cncnc1)c1ccc(-c2ccc(C(F)(F)F)cc2F)cc1F (stereo not drawn) [Compound 31] | – | – | – | – | 80 to 100
40 | CC(C)(C)C(O)(c1ccc(-c2ccc(OC(F)F)cc2)cc1)c1cccnc1 (stereo not drawn) [Compound 56] | – | – | – | – | 80 to 100
41 | CC(C)(C)C(O)(c1ccc(-c2ccc(C(F)(F)F)nc2)cc1)c1cncnc1 (stereo not drawn) [Compound 7] | – | – | – | – | 80 to 100
42 | CC(C)(C)C(O)(c1cncnc1)c1ccc(-c2ccccc2)cc1F (stereo not drawn) [Compound 28] | – | – | – | – | 80 to 100
43 | Cc1cc(-c2ccc(C(C)(C)C#N)cc2)ccc1C(O)(c1cncnc1)C(C)(C)C (stereo not drawn) [Compound 42] | – | – | – | – | 80 to 100
44 | Cc1cc(-c2ccc(OC(F)(F)F)cc2F)ccc1C(O)(c1cncnc1)C(C)(C)C (stereo not drawn) [Compound 41] | – | – | – | – | 80 to 100
45 | COc1cc(-c2ccc(OC(F)F)cc2)ccc1C(O)(c1cncnc1)C(C)(C)C (stereo not drawn) [Compound 45] | – | – | – | – | 80 to 100
